Test results published in ChEMBL document CHEMBL4038282 (Eur J Med Chem, 2017).
In brackets after ≈: the same amount, converted by molar mass. Activity calls are given as the source filed them. The calls are words filed in the database; no cut-off is given here.

Experiments:
[1] = system: Mus musculus; assay: Toxicity in nu/nu mouse assessed as change in serum albumin level at 5 to 50 mg/kg, po administered once daily for 32 days measured post last dose; assay type: organism-based; details: in vivo, 768 h
[2] = system: MDA-MB-157; assay: Antiproliferative activity against human MDA-MB-157 cells after 24 hrs by MTT assay; assay type: functional, cell-based; details: MDA-MB-157, 24 h
[3] = system: MCF7; assay: Antiproliferative activity against ER/PR positive human MCF7 cells after 24 hrs by MTT assay; assay type: functional, cell-based; details: MCF7, 24 h
[4] = system: Mus musculus; assay: Acute-toxicity in nu/nu mouse assessed as changes in body weight at 500 mg/kg, po administered once daily for 5 days measured for 21 days; assay type: organism-based; details: in vivo, 504 h
[5] = system: MDA-MB-231; assay: Potency index, ratio of curcumin IC50 to compound IC50 for human MDA-MB-231 cells; assay type: functional
[6] = system: HCT-116; assay: Antiproliferative activity against human HCT116 cells up to 72 hrs by MTT assay; assay type: functional, cell-based; details: HCT-116, 72 h
[7] = system: MDA-MB-231; assay: Anti-tumor activity against human MDA-MB-231 cells xenografted in nu/nu mouse assessed as reduction in tumor weight at 50 mg/kg, po administered once daily for 32 days in presence of doxorubicin; assay type: functional; design: scale not given: the % may be the effect or the level left
[8] = system: MDA-MB-468; assay: Potency index, ratio of curcumin IC50 to compound IC50 for doxorubicin-resistant human MDA-MB-468 cells; assay type: functional
[9] = system: Mus musculus; assay: Toxicity in nu/nu mouse assessed as change in blood urea nitrogen level at 5 to 50 mg/kg, po administered once daily for 32 days measured post last dose; assay type: organism-based; details: in vivo, 768 h
[10] = system: Mus musculus; assay: Toxicity in nu/nu mouse assessed as behavioral changes at 5 to 50 mg/kg, po administered once daily for 32 days measured during compound dosing; assay type: organism-based; details: in vivo, 768 h
[11] = system: Mus musculus; assay: Toxicity in nu/nu mouse assessed as change in total protein level at 5 to 50 mg/kg, po administered once daily for 32 days measured post last dose; assay type: organism-based; details: in vivo, 768 h
[12] = system: MCF7; assay: Potency index, ratio of curcumin IC50 to compound IC50 for ER/PR positive human MCF7 cells; assay type: functional
[13] = system: Mus musculus; assay: Toxicity in nu/nu mouse assessed as effect on food consumption at 5 to 50 mg/kg, po administered once daily for 32 days measured during compound dosing; assay type: organism-based; details: in vivo, 768 h
[14] = Solubility of the compound in ethanol after 24 hrs by shake-flask method; assay type: physicochemical; details: ethanol
[15] = system: MDA-MB-231; assay: Antiproliferative activity against human MDA-MB-231 cells up to 72 hrs by MTT assay; assay type: functional, cell-based; details: MDA-MB-231, 72 h
[16] = system: MDA-MB-231; assay: Induction of apoptosis in human MDA-MB-231 cells; assay type: functional, cell-based
[17] = system: T47D; assay: Antiproliferative activity against ER/PR positive human T47D cells after 24 hrs by MTT assay; assay type: functional, cell-based
[18] = system: MDA-MB-468; assay: Antiproliferative activity against doxorubicin-resistant human MDA-MB-468 cells after 24 hrs by MTT assay; assay type: functional, cell-based; details: MDA-MB-468, 24 h
[19] = Solubility of the compound in water after 24 hrs by shake-flask method; assay type: physicochemical
[20] = system: MDA-MB-231; assay: Anti-tumor activity against human MDA-MB-231 cells xenografted in nu/nu mouse assessed as reduction in tumor weight at 50 mg/kg, po administered once daily for 32 days; assay type: functional; design: scale not given: the % may be the effect or the level left
[21] = system: Mus musculus; assay: Toxicity in nu/nu mouse assessed as change in serum creatinine level at 5 to 50 mg/kg, po administered once daily for 32 days measured post last dose; assay type: organism-based; details: in vivo, 768 h
[22] = system: MDA-MB-453; assay: Antiproliferative activity against HER2 positive human MDA-MB-453 cells after 24 hrs by MTT assay; assay type: functional, cell-based; details: MDA-MB-453, 24 h
[23] = system: MDA-MB-157; assay: Potency index, ratio of curcumin IC50 to compound IC50 for human MDA-MB-157 cells; assay type: functional
[24] = system: MDA-MB-231; assay: Induction of autophagy in human MDA-MB-231 cells; assay type: functional, cell-based
[25] = system: MDA-MB-231; assay: Anti-tumor activity against human MDA-MB-231 cells xenografted in nu/nu mouse assessed as reduction in tumor size at 50 mg/kg, po administered once daily for 32 days measured every 4 days during compound dosing relative to control; assay type: functional; design: scale not given: the % may be the effect or the level left
[26] = system: Mus musculus; assay: Toxicity in nu/nu mouse assessed as change in blood uric acid level at 5 to 50 mg/kg, po administered once daily for 32 days measured post last dose; assay type: organism-based; details: in vivo, 768 h
[27] = system: MDA-MB-468; assay: Potency index, ratio of curcumin IC50 to compound IC50 for human MDA-MB-468 cells; assay type: functional
[28] = system: Mus musculus; assay: Toxicity in nu/nu mouse assessed as change in body weight at 50 mg/kg, po administered once daily for 32 days in presence of doxorubicin; assay type: organism-based; details: in vivo, 768 h
[29] = Stability of the compound in culture media measured after 72 hrs in presence of curcumin by HPLC method
[30] = system: MDA-MB-231; assay: Antiproliferative activity against human MDA-MB-231 cells at 1 to 3 uM in presence of doxorubicin by MTT assay; assay type: functional, cell-based
[31] = system: SK-BR-3; assay: Antiproliferative activity against HER2 positive human SKBR3 cells after 24 hrs by MTT assay; assay type: functional, cell-based; details: SK-BR-3, 24 h
[32] = system: T47D; assay: Potency index, ratio of curcumin IC50 to compound IC50 for ER/PR positive human T47D cells; assay type: functional
[33] = system: Mus musculus; assay: Toxicity in nu/nu mouse assessed as change in blood glucose level at 5 to 50 mg/kg, po administered once daily for 32 days measured post last dose; assay type: organism-based; details: in vivo, 768 h
[34] = system: MDA-MB-468; assay: Antiproliferative activity against human MDA-MB-468 cells after 24 hrs by MTT assay; assay type: functional, cell-based; details: MDA-MB-468, 24 h
[35] = system: MDA-MB-231; assay: Potency index, ratio of test compound to curcumin for anti-tumor activity against human MDA-MB-231 cells xenografted in nu/nu mouse; assay type: functional
[36] = system: SK-BR-3; assay: Potency index, ratio of curcumin IC50 to compound IC50 for HER2 positive human SKBR3 cells; assay type: functional
[37] = system: Mus musculus; assay: Toxicity in nu/nu mouse assessed as hematological changes at 50 mg/kg, po administered once daily for 32 days in presence of doxorubicin; assay type: organism-based; details: in vivo, 768 h
[38] = system: MDA-MB-231; assay: Cell cycle arrest in human MDA-MB-231 cells assessed as increase in G2/M population by propidium iodide staining based flow cytometry; assay type: functional
[39] = system: Mus musculus; assay: Acute-toxicity in nu/nu mouse assessed as behavioral changes at 500 mg/kg, po administered once daily for 5 days measured for 21 days; assay type: organism-based; details: in vivo, 504 h
[40] = system: Hs-578T; assay: Potency index, ratio of curcumin IC50 to compound IC50 for human Hs578T cells; assay type: functional
[41] = system: Mus musculus; assay: Toxicity in nu/nu mouse assessed as behavioral changes at 50 mg/kg, po administered once daily for 32 days in presence of doxorubicin; assay type: organism-based; details: in vivo, 768 h
[42] = system: BT-474; assay: Potency index, ratio of curcumin IC50 to compound IC50 for HER2 positive human BT474 cells; assay type: functional
[43] = system: MDA-MB-453; assay: Potency index, ratio of curcumin IC50 to compound IC50 for HER2 positive human MDA-MB-453 cells; assay type: functional
[44] = system: Mus musculus; assay: Toxicity in nu/nu mouse assessed as changes in body weight at 5 to 50 mg/kg, po administered once daily for 32 days measured every 4 days during compound dosing; assay type: organism-based; details: in vivo
[45] = system: BT-474; assay: Antiproliferative activity against HER2 positive human BT474 cells after 24 hrs by MTT assay; assay type: functional, cell-based; details: BT-474, 24 h
[46] = system: MDA-MB-231; assay: Effect on heme oxygenase-1 expression in human MDA-MB-231 cells by microarray analysis; assay type: functional, cell-based
[47] = system: Hs-578T; assay: Antiproliferative activity against human Hs578T cells after 24 hrs by MTT assay; assay type: functional, cell-based
[48] = system: PC-3; assay: Antiproliferative activity against human PC3 cells up to 72 hrs by MTT assay; assay type: functional, cell-based; details: PC-3, 72 h

COc1cc(/C=C/C(=O)/C=C(O)/C=C/c2ccc(OC(=O)C(C)(CO)CO)c(OC)c2)ccc1OC(=O)C(C)(CO)CO
Activity [1]: Non-Toxic | IC50 [2]: 9.23 µM | IC50 [3]: 6.13 µM | Activity [4]: Non-Toxic | Ratio IC50 [5]: 6.1 | IC50 [6]: 3.91 µM | Activity [7]: 80% | Ratio IC50 [8]: 10 | Activity [9]: Non-Toxic | Activity [10]: Non-Toxic | Activity [11]: Non-Toxic | Ratio IC50 [12]: 2.5 - 8.6 | Activity [13]: Non-Toxic | solubility thermodynamic at 24 h [14]: 13.8 mg/mL (≈ 23.1 mM) | IC50 [15]: 2670 nM | Activity [16]: Active | IC50 [17]: 19.3 µM | IC50 [18]: 6.52 µM | solubility thermodynamic at 24 h [19]: 21.1 µg/mL (≈ 0.0351 mM) | Activity [20]: 60% | Activity [21]: Non-Toxic | IC50 [22]: 3.97 µM | Ratio IC50 [23]: 3.4 - 7.4 | Activity [24]: Active | Activity [25]: 60% | Activity [26]: Non-Toxic | Ratio IC50 [27]: 3.4 - 7.4 | Activity [28]: Non-Toxic | Stability [29]: Stable | Activity [30]: Active | IC50 [31]: 6.39 µM | Ratio IC50 [32]: 2.5 - 8.6 | Activity [33]: Non-Toxic | IC50 [34]: 6.13 µM | Ratio [35]: 10 | Ratio IC50 [36]: 2.5 - 8.6 | Activity [37]: Non-Toxic | Activity [38]: Active | Activity [39]: Non-Toxic | Ratio IC50 [40]: 3.4 - 7.4 | Activity [41]: Non-Toxic | Ratio IC50 [42]: 2.5 - 8.6 | Ratio IC50 [43]: 2.5 - 8.6 | Activity [44]: Non-Toxic | IC50 [45]: 6.15 µM | Activity [46]: Active | IC50 [47]: 7.96 µM | IC50 [48]: 3.9 µM
